Assay results published in patent US10532040B2, “Methods of treating cancer with herbacetin” (REGENTS OF THE UNIVERSITY OF MINNESOTA, priority 2011, dated 2020).
Entries after “also recorded” stand apart in the source; their conditions may differ.

Columns and labels:
[1] = target: T1, ODC (WT, D44A, D243A, E384A) (Homo sapiens, UniProt P11926, D44A); assay: pull-down assay with ectopically expressed ODC mutants in HCT116 cells; assay type: binding; conditions: D44A mutant compared with D243A, E384A and WT
T1 construct: expressed in transfected cells; host or cells: HCT116 colon cancer cells
T1 sequence (P11926 1-461 D44A): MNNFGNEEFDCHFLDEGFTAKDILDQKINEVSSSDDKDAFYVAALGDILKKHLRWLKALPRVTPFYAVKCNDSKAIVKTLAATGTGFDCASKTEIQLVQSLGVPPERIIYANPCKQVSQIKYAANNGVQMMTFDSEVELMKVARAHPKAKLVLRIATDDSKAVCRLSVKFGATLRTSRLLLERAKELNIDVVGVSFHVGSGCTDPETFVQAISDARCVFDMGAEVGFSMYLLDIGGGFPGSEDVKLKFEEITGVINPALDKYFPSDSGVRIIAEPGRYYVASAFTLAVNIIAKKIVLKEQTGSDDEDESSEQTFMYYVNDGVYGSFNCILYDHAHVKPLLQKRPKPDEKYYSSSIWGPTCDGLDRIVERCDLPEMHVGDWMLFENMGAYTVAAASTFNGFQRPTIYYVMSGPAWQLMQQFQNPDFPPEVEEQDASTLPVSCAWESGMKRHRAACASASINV
Protocol: A recombinant human ODC protein (200 ng) or total cell lysates (500 μg) to were incubated with herbacetin Sepharose 4B (or Sepharose 4B only as a control) beads (50 μl, 50% slurry) in reaction buffer (50 mM Tris pH 7.5, 5 mM EDTA, 150 mM NaCl, 1 mM DTT, 0.01% NP40, 2 μg/mL bovine serum albumin). After incubation with gentle rocking overnight at 4° C., the beads were washed 5 times with buffer (50 mM Tris pH 7.5, 5 mM EDTA, 150 mM NaCl, 1 mM DTT, 0.01% NP40) and binding was determined by Western blotting.

ODC = target: T2, ODC (Mus musculus, UniProt P00860); assay: ODC activity in TPA-treated JB6 mouse skin epidermal cells; assay type: cell-based
T2 construct: endogenous in cells; host or cells: JB6 mouse skin epidermal cells, TPA-treated
T2 sequence (P00860 1-461): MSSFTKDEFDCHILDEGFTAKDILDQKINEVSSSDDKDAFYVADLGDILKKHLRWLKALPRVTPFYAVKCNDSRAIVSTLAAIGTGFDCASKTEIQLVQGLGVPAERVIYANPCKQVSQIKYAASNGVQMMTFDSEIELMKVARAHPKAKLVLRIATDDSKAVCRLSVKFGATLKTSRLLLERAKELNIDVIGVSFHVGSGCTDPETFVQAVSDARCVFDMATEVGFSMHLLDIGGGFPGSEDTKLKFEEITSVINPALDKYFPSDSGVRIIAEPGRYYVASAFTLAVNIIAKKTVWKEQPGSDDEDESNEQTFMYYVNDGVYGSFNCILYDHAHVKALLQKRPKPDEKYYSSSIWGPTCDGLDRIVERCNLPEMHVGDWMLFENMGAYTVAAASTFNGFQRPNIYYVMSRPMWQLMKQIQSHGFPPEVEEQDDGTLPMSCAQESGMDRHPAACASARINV
Protocol: (§1) ODC activity was measured as the release of CO2 from L-[1-C^14] ornithine as previously described ([…]).

[2] = target: T1, ODC (WT, D44A, D243A, E384A); assay: activity of ectopically expressed ODC (WT, D44A, D243A, E384A); assay type: cell-based; conditions: D44A vs D243A, E384A or wildtype ODC
Protocol: FIGS. 1A-1H. Herbacetin binds directly to ODC and inhibits ODC activity. (a) Chemical structure of herbacetin, a new allosteric ODC inhibitor. (b) Computer modeling of herbacetin and the ODC protein crystal structure. […] (c, upper panel) Recombinant ODC, (c, lower panel) HCT116 colon cancer cell lysate or (d) ectopically expressed ODC (WT, mutant D44A, D243A and E384A) cells were incubated with herbacetin-conjugated Sepharose 4B beads or with Sepharose 4B beads alone. Proteins were pulled down using anti-Xpress and then analyzed by Western blotting. The effect of herbacetin on ODC activity was assessed using a (e) recombinant ODC protein, (f) HCT116 colon cancer cells, or (g) TPA-treated JB6 mouse skin epidermal cells. (h) The effect of herbacetin on ectopically expressed ODC (WT, D44A, D243A, E384A) activity was measured as the release of CO2 from L-[1-C^14] ornithine. For e-h, data are represented as means±S.D. of values from triplicate experiments and the asterisk (*) indicates a significant difference (p<0.05) between herbacetin- or DFMO-treated samples compared to untreated controls. WB, Western blot.
as §1

HCT116 cells = assay: HCT116 xenograft in athymic nude mice; assay type: in vivo, mouse
Protocol: Athymic nude mice were inoculated in the right flank with HCT116 cells. Tumors were allowed to grow to an average of 40 mm^3 and then mice were divided into four equal groups with the same average tumor volume (FIG. 10). Treatment was initiated on Day 8 and continued to Day 20. […] No difference between treatment with 0.4 mg/kg B.W. herbacetin, 2 mg/kg B.W herbacetin or 200 mg/kg DFMO was observed.

[3] = tested on: JB6 mouse epidermal skin cells; assay: proliferation and colony formation of JB6 mouse epidermal skin cells; assay type: cell-based; conditions: preliminary data
Protocol: FIGS. 3A-3H. Anticancer effect of herbacetin. (a) The effect of herbacetin on ODC activity in colon cancer cell lines was measured as the release of CO2 from L-[1-C^14] ornithine. […] (b) The effect of herbacetin and DFMO on the growth of colon cancer cells and (c) TPA-induced JB6 cell growth was compared. Cells were incubated for 72 h and growth was estimated using the MTS assay. (d) The effect of herbacetin on anchorage independent HCT116 colon cancer cell growth and (e) TPA-induced JB6 cell transformation was assessed. Cells were incubated for 2 weeks and then colonies were counted using a microscope and the Image-Pro PLUS (v.6) computer software program. The effect of herbacetin on AP-1 reporter activity in (f) HCT116 colon cancer cells and (g) TPA-induced AP-1 reporter activity in JB6 mouse epidermal cells was analyzed using the substrates included in the reporter assay system. Data are represented as means±S.D. of triplicate values from three independent experiments and the asterisk (*) indicates a significant (p<0.05) effect of herbacetin or DFMO compared to untreated or TPA-treated controls. (h) The effect of herbacetin on the phosphorylation of ERK1 and ERK2 in HCT116 colon cancer cells was determined by Western blotting. Similar results were observed from two independent experiments.

O=c1c(O)c(-c2ccc(O)cc2)oc2c(O)c(O)cc(O)c12 [herbacetin, 3,5,7,8,4′-Pentahydroxyflavone]
binding affinity of ODC mutant with herbacetin [1]: most reduced binding affinity
suppression of ODC activity (ODC): markedly more effective than DFMO; also recorded: inhibit TPA-induced ODC1 activity
susceptibility of ODC D44A mutant activity to herbacetin [2]: less susceptible
potency as therapeutic agent relative to DFMO (HCT116 cells; based on concentration): much more potent
tumor volume, comparison between treated groups (HCT116 cells; herbacetin 0.4 mg/kg, 2 mg/kg, DFMO 200 mg/kg): No difference
tumor volume, treated groups vs vehicle-treated group (HCT116 cells; herbacetin 0.4 or 2 mg/kg B.W., DFMO 200 mg/kg, Day 8 to Day 20): vehicle-treated group were significantly large in volume than any of the three treated groups
cell proliferation and anchorage independent colony formation [3]: decrease cell proliferation and anchorage independent colony formation
